Entries after “also recorded” stand apart in the source; their conditions may differ.
Key:
[1] = test system: PD-L1 expression on tumor cells; experiment: PD-L1 expression on tumor cells of iAST mice by flow cytometry; type: in vivo, mouse; settings: day 12 after treatment start
Description: Tumors from iAST mice were treated as described in FIG. 1. […] For flow cytometry, tumors were excised and single cell suspensions obtained by mechanical processing and enzymatic digestion (DNAse 0.01%, Collagenase IV 1 mg/ml). Staining procedures started with Fc receptor blocking using 2.4G2 antibody clone (1:200 dilution, BD Bioscience), and the following antibodies (clones) were used to analyzed leukocyte infiltrate: CD45-FITC (30-F11, BioLegend) and CD11b-BUV737 (M1/70, BD Bioscience). Samples were acquired using a LSR Fortessa machine (BD Bioscience) and analyzed by FlowJo version 10 (Treestar).

[2] = test system: Hep55.1c tumor bearing mice; experiment: Transplanted Hep55.1c mouse model of hepatocellular carcinoma, tumor volume by μCT; type: in vivo, C57BL/6N mice; settings: Hep55.1c intrahepatic tumors; 41-A 10 mg/kg weekly oral; anti-CD40 4 mg/kg single dose; vs vehicle
Description: Female C57BL/6N mice (Jackson Laboratories) were injected intra hepatically with 5×10^5 Hep55.1c tumor cell line together with Matrigel (Matrigel Basement Membrane Matrix, Corning Cat #354234) in a total volume of […] (10 μl cell suspension plus 10 μl Martigel). Tumor volume was monitored weekly using μCT (TomoScope Synergy Twin, CT Imaging GmbH) upon a single intravenous administration of contrasting agent Exitron 6000 (Viscovert). Imaging data were reconstructed by TomoScope software and analyzed using Osirix software. […] To compare to another agonistic, immune stimulating agent, a single dose of anti-CD40 antibody (4 mg/kg; clone FGK.45, BioXCell) was given. Data depicted are means±SEM for a minimum of n=9 animals per group.

[3] = test system: Hep55.1c mouse model of hepatocellular carcinoma; experiment: Hep55.1c tumor fragment transplantation model, survival; type: in vivo, C57BL/6N mice; settings: alive on day 94 after tumor fragment transplantation; 41-A weekly oral, anti-PD-1 250 μg i.p. 8 doses
Description: Female C57BL/6N mice (Jackson Laboratories) were injected intra hepatically with 5×10^5 Hep55.1c tumor cell line together with Matrigel (Matrigel Basement Membrane Matrix, Corning Cat #354234) in a total volume of 20 μl (10 μl cell suspension plus 10 μl Martigel). After 3 weeks, animals were sacrificed and tumors excised from the liver. Excised tumors were cut into 1×1 mm^3 pieces and implanted into the liver of female C57BL/6N mice. Scout animals were sacrificed to determine the time point of treatment start at about 80 mm^3 tumor volume. […] 41-A was given weekly, while anti-PD-1 antibody treatment started one day after 41-A treatment and was continued every three to four days for 8 doses in total. Treatment with both agents was stopped after the last anti-PD-1 administration.

[4] = test system: iAST mouse model of hepatocellular carcinoma; experiment: iAST mouse model of hepatocellular carcinoma, tumor burden; settings: iAST mice, day 12 after treatment start; 41-A 10 mg/kg once a week oral, Sorafenib 90 mg/kg daily
Description: Per group n=10 were analyzed by One-way ANOVA and Tukey correction shown as individual dots with means±SEM using GraphPad Prism software version 6.

For `CCCN(C)C(=O)n1c(=O)n(Cc2ccc(Cl)cc2)c2nc([S@](=N)(=O)CC)nc(N)c21` [Example 41-A, 6-Amino-9-[(4-chlorophenyl)methyl]-2-[S(R)-ethylsulfonimidoyl]-N-methyl-8-oxo-N-propyl-purine-7-carboxamide], which “PD-L1 expression on tumor cells” value [1] is on record?
Its value is “induced PD-L1 expression on tumor cells”.

And the “PD-L1 expression on tumor cells” value ([1]; listed as compound 41-A)?
The value was “induces PD-L1 expression on tumor cells”.

What about the “tumor growth (tumor volume)” value [2] of the same compound?
Its value is “tumor stasis; also recorded: inhibition of tumor growth”.

And the survival of mice [3]?
Its survival of mice is 5/10.

What about the “Examination of the liver for superficial tumor nodules (tumor nodule free)” value [4] of the same compound?
The value was 0/10 tumor nodule free.

Reference: patent publication US20200268762A1, “7-SUBSTITUTED SULFONIMIDOYLPURINONE COMPOUNDS AND DERIVATIVES FOR THE TREATMENT AND PROPHYLAXIS OF LIVER CANCER” (Hoffmann-La Roche Inc., priority 2019, published 2020)
